“And” between values parts separate entries of the source, which are not always exact repeats. Equal values may be shown once. Toxic doses and inconclusive results are not listed. Cut-off read from the data, not from the text of the source: active = T/C of 150% or more; inactive = T/C below 125%.
Tested on: L1210 leukemia ip in BDF1 mice, survival T/C
Test: NCI In Vivo Anticancer Drug Screen. Data for tumor model L1210 Leukemia (intraperitoneal) in B6D2F1 (BDF1) mice
Conditions: endpoint: mean survival time, higher = longer survival
Summary of the method: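 Read-out is survival time, reported as the treated-group measurement over the vehicle-control measurement.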

[1] = dose: 50.0 mg/kg/injection, schedule: Q01DX001 (sc), vehicle: steriod suspending solution
[2] = dose: 100.0 mg/kg/injection, schedule: Q01DX001 (sc), vehicle: steriod suspending solution
[3] = dose: 100.0 mg/kg/injection, schedule: Q01DX001 (ip), vehicle: carboxymethylcellulose (CMC)
[4] = dose: 200.0 mg/kg/injection, schedule: Q01DX001 (ip), vehicle: carboxymethylcellulose (CMC)
[5] = dose: 100.0 mg/kg/injection, schedule: Q01DX009 (ip), vehicle: saline
[6] = dose: 200.0 mg/kg/injection, schedule: Q01DX009 (ip), vehicle: saline
[7] = dose: 50.0 mg/kg/injection, schedule: Q01DX009 (ip), vehicle: Klucel (hydroxypropylcellulose) (HPC)
[8] = dose: 100.0 mg/kg/injection, schedule: Q01DX009 (ip), vehicle: Klucel (hydroxypropylcellulose) (HPC)
[9] = dose: 100.0 mg/kg/injection, schedule: Q04DX003 (ip), vehicle: Klucel (hydroxypropylcellulose) (HPC)
[10] = dose: 200.0 mg/kg/injection, schedule: Q01DX009 (ip), vehicle: Klucel (hydroxypropylcellulose) (HPC)
[11] = dose: 200.0 mg/kg/injection, schedule: Q04DX003 (ip), vehicle: Klucel (hydroxypropylcellulose) (HPC)
[12] = dose: 400.0 mg/kg/injection, schedule: Q04DX003 (ip), vehicle: Klucel (hydroxypropylcellulose) (HPC)
[13] = dose: 100.0 mg/kg/injection, schedule: Q01DX009 (ip), vehicle: saline with Tween-80
[14] = dose: 200.0 mg/kg/injection, schedule: Q01DX009 (ip), vehicle: saline with Tween-80
[15] = dose: 400.0 mg/kg/injection, schedule: Q01DX009 (ip), vehicle: saline with Tween-80
[16] = dose: 50.0 mg/kg/injection, schedule: Q01DX009 (ip), vehicle: saline
[17] = dose: 100.0 mg/kg/injection, schedule: Q04DX003 (ip), vehicle: saline
[18] = dose: 200.0 mg/kg/injection, schedule: Q04DX003 (ip), vehicle: saline

Measured: T/C

O=C1C2C3C=CC(CC3)C2C(=O)C2C3C=CC(C3)C12 (stereo not given)
inactive: dose: 100.0 mg/kg/injection, schedule: Q04DX002 (ip), vehicle: saline with Tween-80 101 % of control | dose: 200.0 mg/kg/injection, schedule: Q04DX002 (ip), vehicle: saline with Tween-80 93 % of control

CC12CCC3=C(OCCO3)C1=CCC1C2CCC2(C)C(O)CCC12 (stereo not given)
inactive: [1] 95 % of control | [2] 91 % of control | dose: 200.0 mg/kg/injection, schedule: Q01DX001 (sc), vehicle: steriod suspending solution 103 % of control | dose: 400.0 mg/kg/injection, schedule: Q01DX001 (sc), vehicle: steriod suspending solution 101 % of control

O=c1cc(N(Cc2ccccc2)Cc2ccccc2)[nH]c(=O)[nH]1
inactive: dose: 75.0 mg/kg/injection, schedule: Q01DX001 (ip), vehicle: Klucel (hydroxypropylcellulose) (HPC) 101 % of control | dose: 75.0 mg/kg/injection, schedule: Q01DX001 (ip), vehicle: saline with Tween-80 94 % of control | dose: 150.0 mg/kg/injection, schedule: Q01DX001 (ip), vehicle: Klucel (hydroxypropylcellulose) (HPC) 102 % of control | dose: 150.0 mg/kg/injection, schedule: Q01DX001 (ip), vehicle: saline with Tween-80 95 % of control | dose: 300.0 mg/kg/injection, schedule: Q01DX001 (ip), vehicle: Klucel (hydroxypropylcellulose) (HPC) 106 % of control | dose: 300.0 mg/kg/injection, schedule: Q01DX001 (ip), vehicle: saline with Tween-80 98 % of control

COC(=O)CC(Br)CBr (stereo not given)
inactive: [3] 100 % of control | [4] 100 % of control

NNC(=O)C1CC2C=CC1C2 (stereo not given)
inactive: [5] 100 % of control | [6] 103 % of control

N#CC(Nc1ccccc1)C1CC1c1ccccc1 (stereo not given)
inactive: dose: 12.5 mg/kg/injection, schedule: Q01DX009 (ip), vehicle: saline with Tween-80 94 % of control | dose: 12.5 mg/kg/injection, schedule: Q04DX003 (ip), vehicle: saline with Tween-80 98 % of control | dose: 25.0 mg/kg/injection, schedule: Q01DX009 (ip), vehicle: saline with Tween-80 100 % of control | dose: 25.0 mg/kg/injection, schedule: Q04DX003 (ip), vehicle: saline with Tween-80 102 % of control | dose: 50.0 mg/kg/injection, schedule: Q01DX009 (ip), vehicle: saline with Tween-80 95 % of control | dose: 50.0 mg/kg/injection, schedule: Q04DX003 (ip), vehicle: saline with Tween-80 101 % of control

COc1ccc(S(=O)(=O)NC(=O)NCCC=C(C)C)cc1
inactive: [7] 100 % of control | [8] 95 % of control | [9] 106 % of control | [10] 91 % of control | [11] 97 % of control | [12] 101 % of control

CC(=O)Nc1ccc(NC(=S)Nc2ccc(NC(C)=O)cc2)cc1
inactive: [7] 101 % of control | [8] 104 % of control | [9] 97 % of control | [11] 93 % of control

CC(C)COC(=O)C1OC1(C)c1ccccc1 (stereo not given)
inactive: [13] 100 % of control | [14] 106 % of control | [15] 103 % of control

COC(=O)c1ccc[n+](Cc2c(Cl)cccc2Cl)c1
inactive: dose: 75.0 mg/kg/injection, schedule: Q01DX001 (ip), vehicle: saline 95 % of control | dose: 150.0 mg/kg/injection, schedule: Q01DX001 (ip), vehicle: saline 96 % of control

C[N+]1=C(C(=O)c2ccc(O)cc2)c2ccc(O)cc2CC1
inactive: dose: 50.0 mg/kg/injection, schedule: Q01DX001 (ip), vehicle: saline 107 % of control | dose: 100.0 mg/kg/injection, schedule: Q01DX001 (ip), vehicle: saline 106 % of control | dose: 200.0 mg/kg/injection, schedule: Q01DX001 (ip), vehicle: saline 119 % of control

O=C(C[n+]1cccc2ccccc21)c1ccc(-c2ccccc2)cc1
inactive: dose: 200.0 mg/kg/injection, schedule: Q01DX001 (ip), vehicle: Klucel (hydroxypropylcellulose) (HPC) 96 % of control

COc1cc(C=O)ccc1OC(=O)Nc1cccc(C(C)=O)c1
inactive: [8] 96 % of control | [10] 92 % of control

O=C(Nc1cccc(O)c1)Oc1cccc(Cl)c1
inactive: [13] 98 % of control | [14] 102 % of control | [15] 106 % of control

O=S(=O)(Nc1ccccc1)c1ccc(C2CC3(Cl)C(Cl)=C(Cl)C2(Cl)C3(Cl)Cl)cc1 (stereo not given)
inactive: dose: 29.0 mg/kg/injection, schedule: Q01DX015 (ip), vehicle: carboxymethylcellulose (CMC) 97 % of control | dose: 44.0 mg/kg/injection, schedule: Q01DX015 (ip), vehicle: carboxymethylcellulose (CMC) 104 % of control | dose: 66.0 mg/kg/injection, schedule: Q01DX015 (ip), vehicle: carboxymethylcellulose (CMC) 95 % of control | dose: 88.8 mg/kg/injection, schedule: Q01DX001 (ip), vehicle: carboxymethylcellulose (CMC) 96 % of control and 100 % of control | [3] 110 % of control | dose: 100.0 mg/kg/injection, schedule: Q01DX009 (ip), vehicle: saline sonified 86 % of control | dose: 100.0 mg/kg/injection, schedule: Q01DX015 (ip), vehicle: carboxymethylcellulose (CMC) 92 % of control | [9] 100 % of control | dose: 133.0 mg/kg/injection, schedule: Q01DX001 (ip), vehicle: carboxymethylcellulose (CMC) 107 % of control | [4] 96 % of control and 100 % of control | dose: 200.0 mg/kg/injection, schedule: Q01DX015 (ip), vehicle: carboxymethylcellulose (CMC) 93 % of control | [11] 97 % of control | dose: 300.0 mg/kg/injection, schedule: Q01DX001 (ip), vehicle: carboxymethylcellulose (CMC) 100 % of control and 109 % of control | dose: 400.0 mg/kg/injection, schedule: Q01DX001 (ip), vehicle: carboxymethylcellulose (CMC) 105 % of control | dose: 400.0 mg/kg/injection, schedule: Q01DX009 (ip), vehicle: saline sonified 98 % of control | dose: 400.0 mg/kg/injection, schedule: Q01DX015 (ip), vehicle: carboxymethylcellulose (CMC) 89 % of control | [12] 92 % of control

O=C(O)c1cc2ccccc2c(Br)c1O.OC1CCCC2CCC[N-]C12.[Cu+]
inactive: dose: 4.0 mg/kg/injection, schedule: Q01DX015 (sc), vehicle: steriod suspending solution 97 % of control | dose: 16.0 mg/kg/injection, schedule: Q01DX015 (sc), vehicle: steriod suspending solution 103 % of control | dose: 32.0 mg/kg/injection, schedule: Q01DX015 (sc), vehicle: steriod suspending solution 100 % of control | [1] 98 % of control | [2] 111 % of control

Cc1ccc(NC(=S)N2CCCCC2C)cc1C (stereo not given)
inactive: [8] 98 % of control | [10] 101 % of control | dose: 400.0 mg/kg/injection, schedule: Q01DX009 (ip), vehicle: Klucel (hydroxypropylcellulose) (HPC) 91 % of control

SC1(S)CC(c2ccc(Cl)cc2)NC(c2ccc(Cl)cc2)C1 (stereo not given)
inactive: [16] 100 % of control | [5] 93 % of control and 102 % of control | [17] 98 % of control | [6] 93 % of control and 103 % of control | [18] 89 % of control

O=C(O)Cc1ccc(I)cc1
inactive: dose: 100.0 mg/kg/injection, schedule: Q04DX003 (ip), vehicle: gum acacia 98 % of control | dose: 200.0 mg/kg/injection, schedule: Q04DX003 (ip), vehicle: gum acacia 96 % of control | dose: 400.0 mg/kg/injection, schedule: Q04DX003 (ip), vehicle: gum acacia 94 % of control

CCCCCCC(Cl)CCl (stereo not given)
inactive: [16] 97 % of control | [5] 110 % of control | [17] 103 % of control | [18] 115 % of control | dose: 400.0 mg/kg/injection, schedule: Q04DX003 (ip), vehicle: saline 108 % of control

OCCC(c1ccc(Cl)cc1)N1CCCCC1 (stereo not given)
inactive: dose: 100.0 mg/kg/injection, schedule: Q01DX001 (ip), vehicle: other 104 % of control

CC(C)=NNc1ccnc(SCc2ccccc2)n1
inactive: [9] 96 % of control | [11] 97 % of control | [12] 102 % of control

CCCCCCP(=O)(O)O
inactive: [13] 88 % of control

NNc1ccc(Cl)c(S(=O)(=O)O)c1
inactive: [5] 100 % of control | dose: 100.0 mg/kg/injection, schedule: Q04DX003 (ip), vehicle: alcohol 98 % of control | [6] 100 % of control | dose: 200.0 mg/kg/injection, schedule: Q04DX003 (ip), vehicle: alcohol 104 % of control | dose: 400.0 mg/kg/injection, schedule: Q01DX009 (ip), vehicle: saline 103 % of control | dose: 400.0 mg/kg/injection, schedule: Q04DX003 (ip), vehicle: alcohol 106 % of control

Reference: PubChem BioAssay AID248 (DTP/NCI, 2004)
